# Source: ChEMBL document CHEMBL6071126, “Recent advances in the chemistry and biology of oleanolic acid and its derivatives” (Eur J Med Chem, 2024)
# How the values were obtained:
# HeLa = assay: Cytotoxicity against human HeLa cells assessed as reduction in cell viability incubated for 48 hrs by MTT assay; type: functional, cell-based
# Alpha glucosidase = Alpha glucosidase (Homo sapiens, UniProt O43451+P10253+P14410+Q2M2H8); assay: Inhibition of Alpha glucosidase (unknown origin); type: protein assay
# [1] = Potency index, ratio of OA IC50 to test compound IC50 for anti-inflammatory activity in LPS-induced mouse BV-2 cells assessed as inhibition of NO production; type: functional
# HepG2 [2] = assay: Antiproliferative activity against human HepG2 cells assessed as reduction in cell growth incubated for 72 hrs by MTT assay; type: functional, cell-based; conditions: HepG2, 72 h
# HepG2 [3] = assay: Cytotoxicity against human HepG2 cells assessed as reduction in cell viability incubated for 72 hrs by MTT assay; conditions: HepG2, 72 h
# A549 = assay: Cytotoxicity against human A549 cells assessed as reduction in cell viability incubated for 72 hrs by MTT assay; conditions: A549, 72 h
# BGC-823 = assay: Cytotoxicity against human BGC-823 cells assessed as reduction in cell viability incubated for 72 hrs by MTT assay; type: functional, cell-based; conditions: BGC-823, 72 h
# MCF7 = assay: Cytotoxicity against human MCF7 cells assessed as reduction in cell viability incubated for 72 hrs by MTT assay; conditions: MCF7, 72 h
# PC-3 = assay: Cytotoxicity against human PC-3 cells assessed as reduction in cell viability incubated for 72 hrs by MTT assay; type: functional, cell-based; conditions: PC-3, 72 h
# [4] = Apparent permeability across apical to basolateral side in human Caco-2 cells at 10 uM incubated for 90 mins at pH 7.4 by LC/MS analysis; type: ADME, cell-based; conditions: Caco-2, pH 7.4
# [5] = Oral bioavailability in rat; type: ADME, organism-based; conditions: in vivo
# [6] = Aqueous solubility of compound; type: physicochemical
# [7] = Inhibition of Clostridium histolyticum Collagenase using DQ gelatin as substrate measured after 30 mins by fluorescence based microplate reader analysis; set-up: species or system Hathewaya histolytica
# Hathewaya histolytica = assay: Inhibition of Clostridium histolyticum Collagenase at 250 ug/ml relative to control; conditions: dose 250.0 µg/ml
smiles,measurement,setting,value
CC1(C)CC[C@]2(C(=O)OCc3ccccc3Cl)CC[C@]3(C)C(=CCC4[C@@]5(C)CC[C@H](O)C(C)(C)C5CC[C@]43C)C2C1 (stereo partly specified),IC50,HeLa,1550 nM
CC1(C)CC[C@]2(C(=O)C(=O)O)CC[C@]3(C)C(=CCC4[C@@]5(C)Cc6cnn(-c7ccc(Cl)cc7)c6C(C)(C)C5CC[C@]43C)C2C1 (stereo partly specified),IC50,Alpha glucosidase,2640 nM
Cc1ccccc1COC(=O)[C@]12CCC(C)(C)CC1C1=CCC3[C@@]4(C)CC[C@H](OC(=O)/C=C/c5ccc([N+](=O)[O-])cc5)C(C)(C)C4CC[C@@]3(C)[C@]1(C)CC2 (stereo partly specified),IC50,HeLa,1350 nM
COC(=O)[C@]12CCC(C)(C)CC1C1=CC(=O)C3[C@@]4(C)Cc5c([nH]c6ccc(C#N)cc56)C(C)(C)C4CC[C@@]3(C)[C@]1(C)CC2 (stereo partly specified),Ratio IC50,[1],1.93
COC(=O)[C@]12CCC(C)(C)CC1C1=CC(=O)C3[C@@]4(C)Cc5c([nH]c6cc(F)cc(F)c56)C(C)(C)C4CC[C@@]3(C)[C@]1(C)CC2 (stereo partly specified),Ratio IC50,[1],2.41
CON(C[C@]12CCC(C)(C)CC1C1=CCC3[C@@]4(C)CC[C@H](O)C(C)(C)C4CC[C@@]3(C)[C@]1(C)CC2)[C@@H]1O[C@H](CO)[C@@H](O)[C@H](O)[C@H]1O (stereo partly specified),IC50,HepG2 [2],2100 nM
O=c1[nH]cc(F)c(=O)[nH]1 [FLUOROURACIL],IC50,HepG2 [3],< 1000 nM
same,IC50,A549,< 1000 nM
same,IC50,BGC-823,< 1000 nM
same,IC50,MCF7,< 1000 nM
same,IC50,PC-3,< 1000 nM
CC1(C)CC[C@]2(C(=O)O)CC[C@]3(C)C(=CC[C@@H]4[C@@]5(C)CC[C@H](O)C(C)(C)[C@@H]5CC[C@]43C)[C@@H]2C1 [OLEANOLIC_ACID],"Papp A→B at 1.5 h, 10 µM",[4],1.1 ×10⁻⁶ cm/s
same,bioavailability,[5],0.7%
same,solubility,[6],< 1 µg/mL
CC(C)[C@H](NC(=O)[C@H](CCCCN)NC(=O)[C@]12CCC(C)(C)CC1C1=CCC3[C@@]4(C)CC[C@H](O)C(C)(C)C4CC[C@@]3(C)[C@]1(C)CC2)C(=O)N[C@@H](CCCCN)C(=O)O (stereo partly specified),IC50,[7],48.8 µg/mL
same,inhibition,Hathewaya histolytica,100%
